Here are results for one molecule from patent US20150359810A1, “METHODS FOR TREATING EPSTEIN-BARR VIRUS (EBV) ASSOCIATED CANCERS USING ORAL FORMULATIONS OF 5-AZACYTIDINE” (Celgene Corporation, priority 2014, published 2015).

Structures are written as SMILES. “Also recorded” adds a separate entry of the source.

Data set [1] deals with EBV proteins EBNA1, EBNA2, Zta, and LMP1 in Ramos cell line. The data set can be described thus: EBV protein expression by Western blotting in Ramos cell line. Format: cell-based, Epstein-Barr virus. The settings on record: AZA once a day for 1 or 2 days, cells collected on day 6, listed as AZA. The procedure:
Assay Procedure: The RAEL and Ramos Burkitt's lymphoma cell lines were treated with vehicle (water) or AZA once a day (qd) for the number of days indicated in FIG. 6 and FIG. 15. For the experiment described in FIG. 6, cells were collected on days 1 through 9 (singlicate sample per condition per time point); at each time point, an aliquot of cells was used to purify deoxyribonucleic acid (DNA) (DNeasy Blood & Tissue Kit; Qiagen; Valencia, Calif.) for EBV DNA (Z and R promoters) methylation analysis (FIG. 7; FIG. 8) at EpigenDx (Hopkinton, Mass.), while a second aliquot of cells was lysed in QuantiGene Lysis Buffer for gene expression analysis (FIG. 9 to FIG. 14) using the QuantiGene Multiplex 2.0 assay (Affymetrix; Santa Clara, Calif.). The pyrosequencing assay used at EpigenDx to assess the methylation status of cytosine-phosphate-guanine dinucleotides (CpGs) 1-3 of the EBV Z promoter (Li L, Su X, Choi G, Cao Y, Ambinder R, Tao Q. Methylation profiling of Epstein-Barr virus immediate-early gene promoters, BZLF1 (EBV gene encoding for the Zta transcription factor) and BRLF1 (EBV gene encoding for the Rta transcription factor) in tumors of epithelial, NK- and B-cell origins. BMC Cancer 2012 Mar. 29; 12:125) was ADS3981-FS1, while that for CpGs 16-20 of the EBV R promoter (Li, 2012) was ADS3984-FS2. […]

Another data set relates to Zta. Conditions: RAEL cells; 72 hours; AZA 0.3 or 1.0 uM, ROMI 0.5, 1.0, or 2.0 nM, or combination.
The subject of data set [2] is EBV Z promoter (CpGs 1-3). The data set can be described thus: EBV promoter methylation by pyrosequencing in RAEL cells (Z promoter). Format: cell-based, Epstein-Barr Virus. The procedure:
(§1) Assay Procedure: The RAEL and Ramos Burkitt's lymphoma cell lines were treated with vehicle (water) or AZA once a day (qd) for the number of days indicated in FIG. 6 and FIG. 15. For the experiment described in FIG. 6, cells were collected on days 1 through 9 (singlicate sample per condition per time point); at each time point, an aliquot of cells was used to purify deoxyribonucleic acid (DNA) (DNeasy Blood & Tissue Kit; Qiagen; Valencia, Calif.) for EBV DNA (Z and R promoters) methylation analysis (FIG. 7; FIG. 8) at EpigenDx (Hopkinton, Mass.), while a second aliquot of cells was lysed in QuantiGene Lysis Buffer for gene expression analysis (FIG. 9 to FIG. 14) using the QuantiGene Multiplex 2.0 assay (Affymetrix; Santa Clara, Calif.). The pyrosequencing assay used at EpigenDx to assess the methylation status of cytosine-phosphate-guanine dinucleotides (CpGs) 1-3 of the EBV Z promoter (Li L, Su X, Choi G, Cao Y, Ambinder R, Tao Q. Methylation profiling of Epstein-Barr virus immediate-early gene promoters, BZLF1 (EBV gene encoding for the Zta transcription factor) and BRLF1 (EBV gene encoding for the Rta transcription factor) in tumors of epithelial, NK- and B-cell origins. BMC Cancer 2012 Mar. 29; 12:125) was ADS3981-FS1, while that for CpGs 16-20 of the EBV R promoter (Li, 2012) was ADS3984-FS2.
(§2) The RAEL EBV^+ Burkitt's lymphoma cell line was treated with vehicle or 0.3 μM AZA once a day for 4 days (FIG. 6). Cells were harvested on days 1 through 9 to assess the effects of AZA on EBV promoter (Zp and Rp) methylation, as well as EBV gene expression. […] Zp and Rp methylation remained low for the remainder of the experiment, even in the absence of continued AZA treatment (FIG. 7; FIG. 8). In parallel with the effects of AZA on EBV promoter methylation, AZA induced expression of EBV genes.

The next data set concerns DNA methylation in PBMCs. The experiment in a line: DNA methylation in PBMCs of patients by Infinium Methylation27/Methylation450 Array. In kind it is in vivo, human. Conditions: Arm C alone; for patients with DNA hypomethylation in PBMCs: Arm A with CBDCA.
The subject of data set [3] is EBV R promoter (CpGs 16-20). The data set can be described thus: EBV promoter methylation by pyrosequencing in RAEL cells (R promoter). Format: cell-based, Epstein-Barr Virus. The procedure:
as §1, §2

A further data set concerns higher-risk MDS. The settings on record: Phase III study; administered subcutaneously; subjects with higher-risk MDS; cited from earlier work.
The subject of another data set is EBNA1. The experiment in a line: EBV gene expression in RAEL cells, QuantiGene Multiplex 2.0 assay. In kind it is cell-based, Epstein-Barr Virus. The settings on record: 0.3 μM AZA once a day for 4 days, days 1 through 9, listed as AZA. The procedure:
as §1, §2

A further data set deals with BLLF1. The data set is described as above. Format: cell-based, Epstein-Barr Virus. The settings on record: 0.3 μM AZA once a day for 4 days, days 1 through 9. The procedure:
as §1, §2

The next data set deals with EBNA2. Described as above. Format: cell-based, Epstein-Barr Virus. Conditions: 0.3 μM AZA once a day for 4 days, days 1 through 9, listed as AZA. The procedure: as §1, §2
In another data set the test system is BHRF1. The data set is described as above. The settings on record: 0.3 μM AZA once a day for 4 days, days 1 through 9, listed as AZA. In kind it is cell-based, Epstein-Barr Virus. The procedure: as §1, §2
The test system of a further data set is LMP1. The description is as above. In kind it is cell-based, Epstein-Barr Virus. Conditions: 0.3 μM AZA once a day for 4 days, days 1 through 9, listed as AZA. The procedure:
as §1, §2

A further data set deals with BRLF1. The data set is described as above. Format: cell-based, Epstein-Barr Virus. Conditions: 0.3 μM AZA once a day for 4 days, days 1 through 9, listed as AZA. The procedure: as §1, §2
Data set [4] is described as follows: PK exposure of AZA in patients of the clinical study. In kind it is in vivo. The settings on record: human, plasma; oral AZA 200 mg or 300 mg, alone or in combination; read-out: AUCinf of patients in whom decreases in DNA methylation were observed.
The subject of data set [5] is EBV proteins EBNA1, EBNA2, Zta, and LMP1 in RAEL cell line. The experiment in a line: EBV protein expression by Western blotting in RAEL cell line. Format: cell-based, Epstein-Barr virus. The settings on record: cells collected on day 6.
Data set [6] concerns DNA methylation (LINE-1) in PBMC DNAs. The data set can be described thus: LINE-1 DNA methylation in PBMC DNAs of patients. In kind it is in vivo, human. Conditions: Arm C patients, 200 mg oral AZA alone; Days 1, 8, and 15 of 21-day cycle. The procedure:
In one embodiment, PBMC DNA was used for assessing changes in DNA methylation, using assays such as LINE-1 methylation, %5 mdC mass spec, Infinium® Methylation27 Array, and Infinium® Methylation450 Array. In one study, DNA methylation (LINE-1) in PBMC DNAs from patients in clinical studies described in Example 1, dosed with 200 mg oral AZA alone or in combination with CDBCA or ABX, was measured on Days 1, 8, and 15 of 21-day cycle. […] In one study, %5 mdC in PBMC DNAs from patients in clinical studies described in Example 1, dosed with 200 mg oral AZA alone or in combination with CDBCA or ABX, was measured on Days 1, 8, and 15 of 21-day cycle. In one study, methylation levels were measured on Days 1, 8, and 15 of 21-day cycle using Infinium® Methylation27 Array (patients dosed with 200 mg oral AZA alone or in combination with CDBCA or ABX) and density profiles of average methylation levels were analyzed. […] In another study, methylation levels were measured using Infinium® Methylation450 Array (patients dosed with 300 mg oral AZA alone or in combination with CDBCA or ABX) and density profiles of average methylation levels were analyzed, as well as % change of hypermethylated loci (beta >0.7) upon treatment.

Setting [7] is: RAEL EBV+ Burkitt's lymphoma cell line, 0.3 μM AZA once a day for 4 days, harvested days 1 through 9, listed as AZA.
Setting [8] is: RAEL, 0.3 μM AZA once a day for 4 days.
Setting [9] is: RAEL, after 0.3 μM AZA once a day for 4 days, up to day 9.

In the case of `Nc1ncn([C@@H]2O[C@H](CO)[C@@H](O)[C@H]2O)c(=O)n1` [5-azacytidine, 4-amino-1-β-D-ribofuranosyl-1,3,5-triazin-2(1H)-one], the “expression of the EBV proteins EBNA1, EBNA2, Zta, and LMP1” value in data set [1] is on record as “not in the EBV-negative (EBV−) Ramos”; in data set [5] (RAEL (EBV+) cell line, AZA once a day for 1 or 2 days, listed as AZA), “induces expression of EBV proteins; also recorded: dose-dependently induced expression”. Also, the “Zta expression (Zta band intensity with GAPDH as house-keeping protein)” value in the data set on Zta was “slight increase in Zta expression”. Moreover, the Zp methylation entry in data set [2] (setting [7]) was “causes the demethylation; also recorded: precipitously decreased”. In data set [2] (setting [8]), the “time to maximal hypomethylation of Zp” value was not above 4 days. For the same molecule, the “Zp methylation for the remainder of the experiment, in the absence of continued AZA treatment” value in data set [2] (setting [9]) is on record as “remained low”. In addition, the “change in DNA methylation in PBMCs upon treatment (Infinium Methylation27 Array, density profiles of average methylation levels)” value in the data set on DNA methylation in PBMCs (200 mg oral AZA, Arm A with CDBCA, Arm B with ABX, Days 1, 8, and 15 of 21-day cycle) was “decreases in hypermethylated loci (beta >0.7) were observed”. Moreover, the “patients with DNA hypomethylation in PBMCs” value in the data set on DNA methylation in PBMCs (200 mg oral AZA, Arm B with ABX) is 5/6; with DNA methylation in PBMCs (300 mg oral AZA), 3/3. In [3] (setting [7]), the Rp methylation result is “causes the demethylation; also recorded: precipitously decreased”. Besides, the “time to maximal hypomethylation of Rp” value in data set [3] (setting [8]) was not above 4 days. Further, the “Rp methylation for the remainder of the experiment, in the absence of continued AZA treatment” value in data set [3] (setting [9]) is “remained low”. Further, the “survival and time to AML transformation or death” value in the data set with higher-risk MDS is “significantly prolonged survival and time to AML transformation or death”. The “ribonucleic acid expression of EBNA1” value in the data set on EBNA1 is “strongly induced expression”. Besides, in the data set with BLLF1, the “ribonucleic acid expression of BLLF1” value is “did not affect the expression of BLLF1 as much as other genes”. The “ribonucleic acid expression of EBNA2” value with EBNA2 is “strongly induced expression”. The “ribonucleic acid expression of BHRF1” value in the data set with BHRF1 is on record as “strongly induced expression”. Besides, the “ribonucleic acid expression of LMP1” value in the data set with LMP1 was “strongly induced expression”. Besides, the “ribonucleic acid expression of BRLF1” value in the data set on BRLF1 is “strongly induced expression”. The AUC(0-inf) in data set [4] was more than 350 ng·h/mL. For the same molecule, the “induction of EBV proteins, AZA for 2 days compared with AZA for 1 day” value in [5] (RAEL, Western blotting) is given as “greater induction of EBV proteins”. Also, in data set [6], the “DNA methylation (LINE-1) in PBMC DNAs” value is “Decreases in LINE-1 methylation were observed for two patients”.
